# Assays:
# [1] = test system: cotton aphid (Aphis gossypii); assay: Aphis gossypii Test (APHIGO); type: in vivo; details: 144 h, spray on cotton leaves, after 6 days
# Description: Aphis gossypii Test (APHIGO)
# (§1) After 6 days mortality in % is determined.
# [2] = test system: mustard beetle larvae (Phaedon cochleariae); assay: Phaedon cochleariae larvae-Test; details: in Brassica oleracea, 168 h, read-out: mortality in %
# [3] = test system: green peach aphid (Myzus persicae); assay: Myzus persicae-Test (MYZUPE); type: in vivo; details: 144 h, spray on cabbage leaves, after 6 days
# Description: Myzus persicae-Test (MYZUPE)
# as §1
# [4] = test system: am. serpentine leaf miner (Liriomyza trifolii); assay: Liriomyza trifolii-Test (LIRITR spray application); type: in vivo; details: 168 h, spray on French bean leaf-disks, after 7 days
# Excerpt: Liriomyza trifolii-Test (LIRITR Spray Application)
# (§2) • Solvent: 78.0 parts by weight of acetone • 1.5 parts by weight of dimethylformamide • Emulsifier: 0.5 parts by weight of alkylaryl polyglycolether
# French bean (Phaseolus vulgaris) leaf-disks infested with larvaes of the am. serpentine leaf miner (Liriomyza trifolii) are sprayed with a test solution containing the desired concentration of the active ingredient.
# [5] = test system: braun planthopper (Nilaparvata lugens); assay: Nilaparvata lugens-Test (NILALU hydroponic application); type: in vivo; details: after the specified period of time
# Excerpt: Nilaparvata lugens-Test; (NILALU Hydroponic Application)
# as §2
# [6] = test system: fall armyworm larvae (Spodoptera frugiperda); assay: Spodoptera frugiperda-Test (SPODFR spray application); type: in vivo; details: 168 h, spray on maize leaf sections, after 7 days
# Excerpt: Spodoptera frugiperda-Test (SPODFR Spray Application)
# (§3) • Solvent: 78.0 parts by weight acetone • 1.5 parts by weight dimethylformamide • Emulsifier: 0.5 parts by weight alkylarylpolyglcolether
# Maize (Zea mais) leaf sections are sprayed with a preparation of the active ingredient of the desired concentration. Once dry, the leaf sections are infested with fall armyworm larvae (Spodoptera frugiperda). […] 100% means that all caterpillars have been killed and 0% means that none of the caterpillars have been killed.
# [7] = test system: two spotted spidermite (Tetranychus urticae); assay: Tetranychus urticae-Test, OP-resistant (TETRUR spray application); type: in vivo; details: 144 h, spray on French beans, after 6 days
# Excerpt: Tetranychus urticae-Test; (OP-Resistant (TETRUR Spray Application)
# as §3
# [8] = test system: larvae of the diamondback moth (Plutella xylostella/sensible strain); assay: Plutella xylostella-Test (PLUTMA); type: in vivo; details: in Brassica oleracea, 168 h, read-out: mortality in %
# Excerpt: Plutella xylostella-Test (PLUTMA)
# Phytophthora infestans = type: in vivo; details: 500 ppm, tomato, preventive, 7 days after the inoculation
# [9] = test system: white fly (Bemisia tabaci); assay: Bemisia tabaci-Test (BEMITA); type: in vivo; details: 168 h, spray on cotton plants, after 7 days
# Excerpt: Bemisia tabaci-Test (BEMITA)
# Cotton plants (Gossypium hirsutum) infested with eggs, larvae and pupae of the white fly (Bemisia tabaci) are sprayed with a test solution containing the desired concentration of the active ingredient.
# [10] = test system: green peach aphid (Myzus persicae); assay: Myzus persicae-Test (MYZUPE spray application); type: in vivo; details: 144 h, spray on Chinese cabbage leaf-disks, after 6 days
# Excerpt: Myzus persicae-Test; (MYZUPE Spray Application)
# as §3
# Chinese cabbage (Brassica pekinesis) leaf-disks infected with all instars of the green peach aphid (Myzus persicae), are sprayed with a preparation of the active ingredient at the desired concentration.
# [11] = test system: mustard beetle larvae (Phaedon cochleariae); assay: Phaedon cochleariae-Test (PHAECO spray application); type: in vivo; details: 168 h, spray on Chinese cabbage leaf-disks, after 7 days
# Excerpt: Phaedon cochleariae-Test; (PHAECO Spray Application)
# as §2
# Chinese cabbage (Brassica pekinesis) leaf-disks are sprayed with a preparation of the active ingredient of the desired concentration.
# [12] = test system: two-spotted spider mite (Tetranychus urticae); assay: Tetranychus-Test (OP-resistant); type: in vivo; details: read-out: mortality in %
# Excerpt: Tetranychus-Test (OP-Resistant)
SMILES,mortality at 500 g/ha [4],mortality at 500 g/ha [5],mortality at 500 g/ha [6],mortality at 500 g/ha [7],mortality at 20 ppm [9],mortality at 500 g/ha [10],mortality at 500 g/ha [11],also measured
Cc1ccc(C)c(C2=C(OC(=O)N(C)CCC#N)CC3(CCOCC3)CC2=O)c1,,,,,,,,melting point: 108 to 114 °C
Cc1ccc(-c2ccc(Cl)cc2)cc1C1=C(O)CC2(CCOCC2)CC1=O [Compound T3],≥ 80%,≥ 80%,≥ 80%,≥ 80%,≥ 80%,,,mortality at 100 ppm [1]: ≥ 80%; mortality at 100 ppm [2]: ≥ 80%; mortality at 100 ppm [3]: ≥ 80%; mortality at 100 ppm [8]: ≥ 80%; Efficacy in % (Phytophthora infestans): 75%
CCc1cc(C)cc(CC)c1C1=C(O)CC2(CCOCC2)CC1=O [Compound T22],,,,,,≥ 80%,,
Cc1ccc(-c2ccc(F)cc2)cc1C1=C(O)CC2(CCOCC2)CC1=O [Compound T74],≥ 80%,≥ 80%,≥ 80%,,≥ 80%,,≥ 80%,mortality at 20 ppm [12]: ≥ 80%
O=C1CC2(CCOCC2)CC(O)=C1c1cc(-c2ccc(F)cc2)ccc1Cl [Compound T75],≥ 80%,,,≥ 80%,≥ 80%,≥ 80%,,
Cc1ccc(-c2ccc(F)cc2)c(C)c1C1=C(O)CC2(CCOCC2)CC1=O [Compound T76],,,≥ 80%,≥ 80%,,≥ 80%,≥ 80%,

# Source: patent publication US8487118B2, “Cyclic diones and their use as insecticides, acaricides and/or fungicides” (Bayer CropScience AG, priority 2009, dated 2013)
